27 molecules from US20170001988A1, “PIPERIDINE AND PIPERAZINE DERIVATIVES AND THEIR USE IN TREATING VIRAL INFECTIONS AND CANCER” (THE UNITED STATES OF AMERICA, AS REPRESENTED BY THE …, priority 2013, published 2017) can be followed below.

A word on the EC50: it is the concentration that produces a half-maximal response. By CC50 is commonly meant the concentration that lowers cell viability or growth by half. A low value points to greater toxicity to the cells.

One series relates to HCV-Luc. Briefly: HCV-Luc infection assay. The class given is cell-based. The following applies: for EC50: Hepatitis C virus.
Another series has as its system Huh7.5.1 cells. As to the kind of experiment: ATPLite cytotoxicity assay. From the text:
EC50 was generated using the HCV-Luc infection assay and IC50 using the ATPLite assay.
EC50 was generated using the HCV-Luc infection assay and TC50 using the ATPLite assay.
The cytotoxicity of the compounds was further evaluated in HepG2 cells and primary human hepatocytes.
In general terms: Cellular ATP, detected with luciferase, serves as a proxy for viable cell number.

Each structure is given as a SMILES string. Like-named read-outs stand apart in the source and are kept apart here. Bounds are passed on as bounds.

Take `CN1CCCN(C(c2ccccc2)c2ccc(Cl)cc2)CC1` (stereo not shown): the EC50 in the series on HCV-Luc (Table 5, read-out: EC50) was found to be 57 ± 8 nM. Besides, the “Selective Index” value in the series on HCV-Luc (Table 5) is 225. Moreover, the midpoint of cytotoxicity in the series with Huh7.5.1 cells (Table 5), the CC50, lay at 12.8 ± 0.1 µM.
Consider `Clc1ccc(C(c2ccc(Cl)cc2)N2CCCCC2)cc1`, for which the concentration giving a half-maximal response (EC50) in the series with HCV-Luc (Table 5, read-out: EC50) stood at 17400 ± 2800 nM. Besides, the “Selective Index” value in the series on HCV-Luc (Table 5) is 4. The molecule also came in with a half-maximal cytotoxic concentration (CC50) with Huh7.5.1 cells (human) of 69 ± 0.9 µM.
`Clc1ccc(C(c2ccc(Cl)cc2)N2CCOCC2)cc1`: in the series with HCV-Luc (Table 5, read-out: EC50), the EC50 was 29700 ± 100 nM. Moreover, the “Selective Index” value in the series on HCV-Luc (Table 5) was determined as 2. It took 62.1 ± 2.8 µM to reach half-maximal cytotoxicity in the series on Huh7.5.1 cells (human) (CC50).
Regarding `CN1CCC(N(c2ccccc2)c2ccccc2)CC1`, in the series with HCV-Luc (Table 5, read-out: EC50), the EC50 was 2720 ± 1130 nM. Moreover, the “Selective Index” value in the series with HCV-Luc (Table 5) is reported as 21. Half-maximal cytotoxicity in the series with Huh7.5.1 cells (human) (CC50) was put at 56.8 ± 8.2 µM.
For the molecule `CN1CCC(N(c2ccccc2)c2ccc(OC(C)(C)C)cc2)CC1`, the concentration giving a half-maximal response (EC50) in the series on HCV-Luc (Table 5, read-out: EC50) amounted to 354 ± 97 nM. In addition, the “Selective Index” value in the series with HCV-Luc (Table 5) worked out at 222. In the series on Huh7.5.1 cells (human), this molecule displayed a CC50 of 78.7 ± 0.6 µM.
Consider `c1ccc(C(c2ccccc2)C2CCNCC2)cc1`, for which, in the series on HCV-Luc (Table 5, read-out: EC50), the EC50 was found to be 72 ± 2 nM. Moreover, the “Selective Index” value with HCV-Luc (Table 5) was determined as 451. This molecule also displayed a CC50 with Huh7.5.1 cells (Table 5) of 32.5 ± 0.1 µM.
For the molecule `c1ccc(C(c2ccccc2)c2ccncc2)cc1`, the EC50 with HCV-Luc (Table 5, read-out: EC50) is more than 31500 nM. Also, the “Selective Index” value with HCV-Luc (Table 5) is recorded as less than 2. In the series on Huh7.5.1 cells (human), the CC50 stood at 65.1 ± 2.1 µM.
Take `CCN1CCN(C2c3ccccc3-c3ccc(Br)cc32)CC1` (stereo not shown): in the series on HCV-Luc (Table 5, read-out: EC50), the EC50 was 1680 ± 450 nM. For the same molecule, the “Selective Index” value with HCV-Luc (Table 5) was 32. For the same molecule, the CC50 with Huh7.5.1 cells (human) came to 53.1 ± 1.3 µM.
As to `CC(C)(C)OC(=O)NCCOCCOCCOCCOCCN1CCN(C(c2ccccc2)c2ccc(Cl)cc2)CC1` (racemic) [(CH2CH2O)4(CH2)2NHC(═O)Ot-Bu (R,S), tert-Butyl (14-(4-((4-chlorophenyl)(phenyl)methyl)piperazin-1-yl)-3,6,9,12-tetraoxatetradecyl)carbamate], the EC50 with HCV-Luc (Table 3, read-out: EC50) came to 199 ± 30 nM. Further, the “Selective Index” value in the series on HCV-Luc (Table 3) is 95. Besides, the midpoint of cytotoxicity with Huh7.5.1 cells (human), the CC50, lay at 19 ± 4 µM.
For `CC(=O)NCCOCCOCCOCCOCCN1CCN(C(c2ccccc2)c2ccc(Cl)cc2)CC1` (racemic) [(CH2CH2O)4CH2CH2NHC(═O)Me (R,S), N-(14-(4-((4-Chlorophenyl)(phenyl)methyl)piperazin-1-yl)-3,6,9,12-tetraoxatetradecyl)acetamide], the EC50 with HCV-Luc (Table 3, read-out: EC50) stood at 170 ± 22 nM. Moreover, the “Selective Index” value in the series on HCV-Luc (Table 3) is reported as more than 588. For the same molecule, the 50% cytotoxic concentration (CC50) in the series with Huh7.5.1 cells (human) is more than 100 µM.
With `NCCOCCN1CCN(C(c2ccccc2)c2ccc(Cl)cc2)CC1` (racemic) [CH2CH2OCH2CH2NH2 (R,S), 2-(2-(4-((4-Chlorophenyl)(phenyl)methyl)piperazin-1-yl)ethoxy)ethanamine], the half-maximal effective concentration (EC50) with HCV-Luc (Table 3, read-out: EC50) came out at 4.8 ± 1.1 nM. The “Selective Index” value in the series with HCV-Luc (Table 3) is on record as 1704. Also, the midpoint of cytotoxicity in the series on Huh7.5.1 cells (human), the CC50, lay at 8.18 µM.
For `NC(=O)COCCN1CCN(C(c2ccccc2)c2ccc(Cl)cc2)CC1` (racemic) [CH2CH2OCH2CONH2 (R,S), 2-(2-(4-((4-Chlorophenyl)(phenyl)methyl)piperazin-1-yl)ethoxy)acetamide] the same measures were 103 ± 52 nM, more than 910 and more than 100 µM.
For the molecule `O=C(O)COCCN1CCN(C(c2ccccc2)c2ccc(Cl)cc2)CC1` (racemic) [CH2CH2OCH2COOH (R,S), 2-(2-(4-((4-Chlorophenyl)(phenyl)methyl)piperazin-1-yl)ethoxy) acetic acid], the 50% effective concentration (EC50) in the series on HCV-Luc (Table 3, read-out: EC50) was more than 31600 nM.
In the case of `COc1ccc(CN2CCN([C@@H](c3ccccc3)c3ccc(Cl)cc3)CC2)c(OC)c1` [2-4-dimethoxybenzyl (S), (S)-1-((4-Chlorophenyl)(phenyl)methyl)-4-(2,4-dimethoxybenzyl)piperazine], the 50% effective concentration (EC50) in the series with HCV-Luc (Table 3, read-out: EC50) was 456 ± 235 nM. In the series on HCV-Luc (Table 3), the “Selective Index” value was found to be 84. Also, half-maximal cytotoxicity in the series with Huh7.5.1 cells (human) (CC50) was put at 38.4 ± 4.2 µM.
On the same counts, the results for `O=C1c2ccccc2C(=O)N1CCOCCN1CCN(C(c2ccccc2)c2ccc(Cl)cc2)CC1` (stereo not shown) [2-(2-(2-(4-((4-Chlorophenyl)(phenyl)methyl)piperazin-1-yl)ethoxy)ethyl)isoindoline-1,3-dione] are 1540 ± 570 nM, more than 65 and more than 100 µM.
On the same counts, the results for `CC(C)CN1CCN([C@H](c2ccccc2)c2ccc(Cl)cc2)CC1` [2-methyl-1-propyl (R), (R)-1-((4-Chlorophenyl)(phenyl)methyl)-4-isobutylpiperazine] are 232 ± 61 nM, 251 and 58.2 ± 7.2 µM.
For the molecule `CC(C)CN1CCN([C@@H](c2ccccc2)c2ccc(Cl)cc2)CC1` [2-methyl-1-propyl (S), (S)-1-((4-Chlorophenyl)(phenyl)methyl)-4-isobutylpiperazine], in the series on HCV-Luc (Table 3, read-out: EC50), the half-maximal effective concentration (EC50) was determined as 102 ± 18 nM. Moreover, the “Selective Index” value with HCV-Luc (Table 3) is 507. Besides, the CC50 in the series on Huh7.5.1 cells (human) was found to be 51.7 ± 1.4 µM.
In the case of `CC(=O)N1CCN([C@@H](c2ccccc2)c2ccc(Cl)cc2)CC1` [Acetyl (S), (S)-1-(4-((4-Chlorophenyl)(phenyl)methyl)piperazin-1-yl)ethanone], the 50% effective concentration (EC50) with HCV-Luc (Table 3, read-out: EC50) is 22000 ± 3200 nM. The “Selective Index” value in the series with HCV-Luc (Table 3) stood at 4. The CC50 with Huh7.5.1 cells (human) was found to be 91.3 ± 1 µM.
Regarding `[2H]C([2H])([2H])N1CCN([C@H](c2ccccc2)c2ccc(Cl)cc2)CC1` [CD3 (R), (R)-1-((4-Chlorophenyl)(phenyl)methyl)-4-methyl(d3)piperazine], the EC50 in the series on HCV-Luc (Table 3, read-out: EC50) turned out to be 40 ± 17 nM. Moreover, the midpoint of cytotoxicity in the series with Huh7.5.1 cells (human), the CC50, lay at 46.7 ± 0.4 µM.
With `[2H]C([2H])([2H])N1CCN([C@@H](c2ccccc2)c2ccc(Cl)cc2)CC1` [CD3 (S), (S)-1-((4-Chlorophenyl)(phenyl)methyl)-4-methyl(d3)piperazine], the EC50 with HCV-Luc (Table 3, read-out: EC50) came to 63 ± 25 nM. This molecule registered a cytotoxic concentration (CC50) in the series with Huh7.5.1 cells (human) of 77.9 ± 3.1 µM.
As for `[2H]C([2H])([2H])CN1CCN([C@H](c2ccccc2)c2ccc(Cl)cc2)CC1` [CD3CH2 (R), (R)-1-((4-Chlorophenyl)(phenyl)methyl)-4-ethyl(2,2,2-d3)piperazine], the 50% cytotoxic concentration (CC50) with Huh7.5.1 cells (human) was 81.5 ± 0.5 µM.
As for `[2H]C([2H])([2H])CN1CCN([C@@H](c2ccccc2)c2ccc(Cl)cc2)CC1` [CD3CH2 (S), (S)-1-((4-Chlorophenyl)(phenyl)methyl)-4-ethyl(2,2,2-d3)piperazine], in the series on Huh7.5.1 cells (human), the CC50 worked out at 71.3 ± 11.4 µM.
As for `FC(F)(F)CN1CCN([C@H](c2ccccc2)c2ccc(Cl)cc2)CC1` [CF3CH2 (R), (R)-1-((4-Chlorophenyl)(phenyl)methyl)-4-(2,2,2-trifluoroethyl)piperazine], the EC50 in the series with HCV-Luc (Table 3, read-out: EC50) is more than 31600 nM. Further, the CC50 with Huh7.5.1 cells (human) was more than 100 µM.
`FC(F)(F)CN1CCN([C@@H](c2ccccc2)c2ccc(Cl)cc2)CC1` [CF3CH2 (S), (S)-1-((4-Chlorophenyl)(phenyl)methyl)-4-(2,2,2-trifluoroethyl)piperazine]: in the series on HCV-Luc (Table 3, read-out: EC50), the 50% effective concentration (EC50) was more than 31600 nM. In the series with Huh7.5.1 cells (human), this molecule yielded a CC50 of more than 100 µM.
`OCCOCCN1CCN(C(c2ccc(Cl)cc2)c2ccc(Cl)cc2)CC1` [Cl, Cl, CH2CH2OCH2CH2OH, 2-(2-(4-(bis(4-Chlorophenyl)methyl)piperazin-1-yl)ethoxy)ethanol] yielded an EC50 with HCV-Luc of 5.5 ± 2.2 nM.
On to `Clc1ccc([C@H](c2ccccc2)N2CCN(C3CCCCC3)CC2)cc1` [Cyclohexyl (S), (S)-1-((4-Chlorophenyl)(phenyl)methyl)-4-cyclohexylpiperazine], for which the EC50 with HCV-Luc (Table 3, read-out: EC50) came out at 177 ± 37 nM. Moreover, the “Selective Index” value in the series on HCV-Luc (Table 3) is 69. The molecule also returned a CC50 with Huh7.5.1 cells (human) of 12.3 ± 0.3 µM.
Molecule `CCN1CCN([C@H](c2ccccc2)c2ccc(Cl)cc2)CC1` [Et (R), (R)-1-((4-Chlorophenyl)(phenyl)methyl)-4-ethylpiperazine] yielded a 50% cytotoxic concentration (CC50) in the series with Huh7.5.1 cells (human) of 37.9 ± 3.3 µM.
